From publication PMC3561256, “Anti-infectious and anti-inflammatory effects of peptide fragments sequentially derived from the antimicrobial peptide centrocin 1 isolated from the green sea urchin, Strongylocentrotus droebachiensis” (AMB Express, 2012)

What was measured:
S. aureus (ATCC 12600) [1] = experiment: Minimal microbicidal concentration (MMC99) assay; assay type: cell-based, Staphylococcus aureus
Procedure: (§1) All the synthesised peptides were tested for their in vitro microbicidal activity against S. aureus (American Type Culture Collection (ATCC) 12600) and P. aeruginosa (ATCC 15442) using a minimal microbicidal concentration (MMC) assay as previously described (Haversen et al. [2010]). Bacteria were cultured in 3.7% brain heart infusion (BHI) broth (Difco, BD Diagnostics, Franklin Lakes, NJ) on a shaker at 250 rpm overnight at 37°C. The culture was diluted 1:10 in fresh 3.7% BHI and incubated for two additional hours to reach log-phase growth. The bacteria were pelleted by centrifugation at 900 × g and suspended in 0.037% BHI to a concentration of 10^7 CFU/mL, estimated by measuring optical density at 600 nm (OD600). To investigate the influence of physiological conditions on microbicidal effect of the peptides, four different assay media were used: 0.037% BHI, 0.037% BHI supplemented with 85 or 150 mM sodium chloride (NaCl), and 50% heat inactivated simulated wound fluid (h.i. SWF) composed of a 50:50 mixture of 0.1% peptone (Oxoid, Basingstoke, UK) in 150 mM NaCl and fetal bovine serum (FBS; PAA Laboratories GmbH, Pasching, Austria), diluted two times in ultra pure water. The peptides were serially diluted by twofold steps from 200 to 1.56 mg/L in the assay media used, and 100 μL of the peptide solutions were mixed with 5 μL bacterial suspensions in a 96 well plate (Nunc, Roskilde, Denmark) and incubated at 37°C for two hours. An aliquot of 5 μL from each well was aspirated and added as drops onto blood agar plates (Columbia agar; Oxoid, Basingstoke, UK) supplemented with 5% defibrinated horse blood (Swedish National Veterinary Institute (SVA), Uppsala, Sweden), and the plates were incubated overnight at 37°C. All samples were processed as duplicates. The minimal test compound concentration causing ≥99% reduction of bacteria was defined as the MMC99. The concentration of the bacterial suspension used in the assay was confirmed by viable count estimation on blood agar plates (Oxoid).
(§2) CEN1 HC was further screened for microbicidal activity against a panel of microbial strains using the MMC99 assay, as described above, except using only two different assay media; 0.037% BHI and 50% h.i. SWF. The following microbial strains were tested for sensitivity: S. aureus (ATCC 12600), MRSA (ATCC 33591), Staphylococcus epidermidis (ATCC 12228), Streptococcus pyogenes (ATCC 12344), Propionibacterium acnes (ATCC 6919) Escherichia coli (ATCC 11775), P. aeruginosa (ATCC 15442), Klebsiella pneumoniae (Culture collection, University of Gothenburg (CCUG) 59413, clinical isolate resistant to penicillins, cephalosporins, aztreonam and carbapenems, with the reference strain ATCC 13883), Acinetobacter baumannii (CCUG 58437, clinical isolate resistant to tobramycin, trimsulfa, ciprofloxacin, cefotaxim, ceftazidim, meropenem, pipera/tazobactam, with the reference strain ATCC 19606) and the yeast strain Candida albicans (ATCC 64549). Mupirocin (GlaxoSmithKline) and fusidic acid (LEO Pharma) were used as comparative control antibiotics.

[2] = tested on: P. aeruginosa (ATCC 15442); experiment: Minimal microbicidal concentration (MMC99) assay; assay type: cell-based, Pseudomonas aeruginosa; conditions: for MMC99, P. aeruginosa ATCC 15442, 0.037% BHI / MMC99, P. aeruginosa ATCC 15442, 50% h.i. SWF: Table 3 panel
Procedure: as §1, §2

MRSA (ATCC 33591) [3] = experiment: Minimal microbicidal concentration (MMC99) assay; assay type: cell-based, methicillin-resistant S. aureus; conditions: Table 3 panel, up to 200 mg/L, duplicates, maximum of at least two independent experiments
Procedure: as §1
CEN1 HC was further screened for microbicidal activity against a panel of microbial strains using the MMC99 assay, as described above, except using only two different assay media; 0.037% BHI and 50% h.i. SWF. […]

[4] = tested on: Acinetobacter baumannii (CCUG 58437); experiment: Minimal microbicidal concentration (MMC99) assay; assay type: cell-based; conditions: Table 3 panel, multiresistant clinical isolate, up to 200 mg/L, duplicates, maximum of at least two independent experiments
Procedure: as §1, §2

[5] = tested on: Candida albicans (ATCC 64549); experiment: Minimal microbicidal concentration (MMC99) assay; assay type: cell-based; conditions: Table 3 panel, yeast, up to 200 mg/L, duplicates, maximum of at least two independent experiments
Procedure: as §1, §2

[6] = tested on: Escherichia coli (ATCC 11775); experiment: Minimal microbicidal concentration (MMC99) assay; assay type: cell-based; conditions: Table 3 panel, up to 200 mg/L, duplicates, maximum of at least two independent experiments
Procedure: as §1, §2

[7] = tested on: Klebsiella pneumoniae (CCUG 59413); experiment: Minimal microbicidal concentration (MMC99) assay; assay type: cell-based; conditions: Table 3 panel, multiresistant clinical isolate, up to 200 mg/L, duplicates, maximum of at least two independent experiments
Procedure: as §1, §2

[8] = tested on: Staphylococcus epidermidis (ATCC 12228); experiment: Minimal microbicidal concentration (MMC99) assay; assay type: cell-based; conditions: Table 3 panel, up to 200 mg/L, duplicates, maximum of at least two independent experiments
Procedure: as §1, §2

[9] = tested on: Streptococcus pyogenes (ATCC 12344); experiment: Minimal microbicidal concentration (MMC99) assay; assay type: cell-based; conditions: Table 3 panel, up to 200 mg/L, duplicates, maximum of at least two independent experiments
Procedure: as §1, §2

[10] = tested on: Propionibacterium acnes (ATCC 6919); experiment: Minimal microbicidal concentration (MMC99) assay; assay type: cell-based; conditions: Table 3 panel, up to 200 mg/L, duplicates, maximum of at least two independent experiments
Procedure: as §1, §2

S. aureus (ATCC 12600) [11] = experiment: In vitro multistep resistance assay (MMC99 after passages); assay type: cell-based, Staphylococcus aureus
Procedure: (§3) S. aureus (ATCC 12600) and MRSA (ATCC 33591) were cultured according to the protocol described above and diluted to 10^8 CFU/mL in 0.037% BHI as estimated by measuring OD600. The multistep resistance assay was performed as previously described (Kosowska-Shick et al. [2006]). Peptide dilutions were prepared in twofold dilution steps in the concentration range from 0.75 mg/L to 96 mg/L in a volume of 1 mL using 0.37% BHI medium. The same peptide concentration range was used during all passages and new peptide dilutions were prepared each day from stock solutions. Mupirocin (Applichem), the active substance in the conventional topical antibiotic Bactroban, was used as a comparator. The antibiotic control was handled in the same way as the peptides except that the concentration range of mupirocin was 0.003 mg/L to 3 mg/L.
(§4) An aliquot of 10 μL (10^8 CFU/mL) of the bacterial suspension was added to the peptide dilutions, to the positive antibiotic control, and to a negative control incubated without peptide, and the suspensions were incubated at 37°C for 24 h. Turbidity of the overnight cultures was determined by OD600 measurements. The OD600 of bacteria/peptide suspensions was calculated by subtracting the OD600 of the peptide mixed with medium from the OD600 measured on the overnight cultures. […]

MRSA (ATCC 33591) [12] = experiment: as above; assay type: cell-based, methicillin-resistant S. aureus
Procedure: as §3, §4

[13] = Table 3 panel, up to 200 mg/L, duplicates, maximum of at least two independent experiments
[14] = up to 200 mg/L, duplicates, maximum of at least two independent experiments
[15] = after 14 days of cultivation under selection pressure, 0.37% BHI, 24 h passages
[16] = multistep resistance assay, before passaging (day 0)
[17] = Table 2 screen, medium 0.037% BHI + 85 mM NaCl, 2 h at 37°C, up to 200 mg/L, duplicates, maximum of at least two independent experiments
[18] = Table 2 screen, medium 0.037% BHI + 150 mM NaCl, 2 h at 37°C, up to 200 mg/L, duplicates, maximum of at least two independent experiments

Row | Compound | MMC99, S. aureus ATCC 12600, 50% h.i. SWF (S. aureus (ATCC 12600) [1]; [13]) | MMC99, P. aeruginosa ATCC 15442, 0.037% BHI [2, 14] | MMC99, P. aeruginosa ATCC 15442, 50% h.i. SWF [2, 14] | MMC99, MRSA ATCC 33591, 0.037% BHI (MRSA (ATCC 33591) [3]) | MMC99, MRSA ATCC 33591, 50% h.i. SWF (MRSA (ATCC 33591) [3]) | MMC99, A. baumannii CCUG 58437, 0.037% BHI [4] | MMC99, A. baumannii CCUG 58437, 50% h.i. SWF [4] | MMC99, C. albicans ATCC 64549, 0.037% BHI [5] | MMC99, C. albicans ATCC 64549, 50% h.i. SWF [5] | MMC99, E. coli ATCC 11775, 0.037% BHI [6] | MMC99, E. coli ATCC 11775, 50% h.i. SWF [6] | MMC99, K. pneumoniae CCUG 59413, 0.037% BHI [7] | MMC99, K. pneumoniae CCUG 59413, 50% h.i. SWF [7] | MMC99, S. epidermidis ATCC 12228, 0.037% BHI [8] | MMC99, S. epidermidis ATCC 12228, 50% h.i. SWF [8] | MMC99, S. pyogenes ATCC 12344, 0.037% BHI [9] | MMC99, S. pyogenes ATCC 12344, 50% h.i. SWF [9] | also measured
1 | CC(=O)O[C@H]1C[C@@]2(C)[C@@H](C[C@@H](O)[C@H]3[C@@]4(C)CC[C@@H](O)[C@@H](C)[C@@H]4CC[C@@]32C)/C1=C(\CCC=C(C)C)C(=O)O [fusidic acid] | 6.3 mg/L | >200 mg/L | >200 mg/L | 6.3 mg/L | 6.3 mg/L | >200 mg/L | >200 mg/L | >200 mg/L | >200 mg/L | >200 mg/L | >200 mg/L | >200 mg/L | >200 mg/L | 6.3 mg/L | 6.3 mg/L | >200 mg/L | >200 mg/L | –
2 | C/C(=C\C(=O)OCCCCCCCCC(=O)O)C[C@@H]1OC[C@H](C[C@@H]2O[C@H]2[C@@H](C)[C@H](C)O)[C@@H](O)[C@H]1O [mupirocin, Mupirocin] | 3.1 mg/L | >200 mg/L | >200 mg/L | 3.1 mg/L | 3.1 mg/L | >200 mg/L | >200 mg/L | >200 mg/L | >200 mg/L | >200 mg/L | >200 mg/L | >200 mg/L | >200 mg/L | 3.1 mg/L | 3.1 mg/L | 6.3 mg/L | 3.1 mg/L | MMC99, S. aureus ATCC 12600, 0.037% BHI (S. aureus (ATCC 12600) [1]; Table 3 panel, 0.037% BHI, up to 200 mg/L, duplicates, maximum of at least two independent experiments, comparators Bactroban 2% ointment, Fucidin 2% cream): 3.1 mg/L; MMC99, P. acnes ATCC 6919, 0.037% BHI ([10]; 0.037% BHI): >200 mg/L; MMC99, P. acnes ATCC 6919, 50% h.i. SWF ([10]; 50% h.i. SWF): >200 mg/L; Concentration killing ≥99% of the bacteria (MMC99), day 14 (S. aureus (ATCC 12600) [11]; [15]): 24 mg/L; Concentration killing ≥99% of the bacteria (MMC99), day 0 (S. aureus (ATCC 12600) [11]; [16]): 3 mg/L; Concentration killing ≥99% of the bacteria (MMC99), day 14 (MRSA (ATCC 33591) [12]; [15]): > 384 mg/L; Concentration killing ≥99% of the bacteria (MMC99), day 0 (MRSA (ATCC 33591) [12]; [16]): 3 mg/L
3 | GW(Br)FKKTFHKVSHAVKSGIHA [CEN1 HC-Br (1–20), C-terminal truncated variant of CEN1 HC-Br] | – | – | – | – | – | – | – | – | – | – | – | – | – | – | – | – | – | S. aureus MMC99, 0.037% BHI + 85 mM NaCl (S. aureus (ATCC 12600) [1]; [17]): >200 mg/L; S. aureus MMC99, 0.037% BHI + 150 mM NaCl (S. aureus (ATCC 12600) [1]; [18]): >200 mg/L; S. aureus MMC99, 0.037% BHI (S. aureus (ATCC 12600) [1]; Table 2 screen, medium 0.037% BHI, ≥99% reduction of bacteria, 2 h at 37°C, tested up to 200 mg/L, duplicates, maximum value from at least two independent experiments): 12.5 mg/L; S. aureus MMC99, 0.037% BHI with 85 mM or 150 mM NaCl (S. aureus (ATCC 12600) [1]; text summary over both NaCl concentrations of Table 2a): ≥ 200 mg/L; P. aeruginosa MMC99, 0.037% BHI + 85 mM NaCl [2, 17]: 12.5 mg/L; P. aeruginosa MMC99, 0.037% BHI + 150 mM NaCl [2, 18]: 25 mg/L; P. aeruginosa MMC99, 0.037% BHI ([2]; Table 2 screen, medium 0.037% BHI, 2 h at 37°C, up to 200 mg/L, duplicates, maximum of at least two independent experiments): 12.5 mg/L; P. aeruginosa MMC99, 0.037% BHI with 85 mM or 150 mM NaCl ([2]; text summary over both NaCl concentrations of Table 2b, compared to 0.037% BHI only): 12.5 to 100.0 mg/L
